Measurements reported in article PMC6259748, “Selection of Peptides Targeting Helix 31 of Bacterial 16S Ribosomal RNA by Screening M13 Phage-Display Libraries” (Molecules, 2011).

What was measured:
[1] = test system: CVRPFAL-GFP (synthetic fusion (expressed by L-arabinose induction)); experiment: SPR; settings: m2G966; m5C967 (E. coli numbering); 5' phosphorothioate; SPR: 10 mM Tris-HCl pH 7.5, 150 mM NaCl, 10 mM MgCl2, 1 mM DTT, 0.005% P20, 50 uL/min, streptavidin-coated CM5 chip; CD: 10 mM sodium phosphate pH 7, 100 mM …
GFP (EmGFP) = experiment: SPR; settings: m2G966; m5C967 (E. coli numbering); 5' phosphorothioate; SPR: 10 mM Tris-HCl pH 7.5, 150 mM NaCl, 10 mM MgCl2, 1 mM DTT, 0.005% P20, 50 uL/min, streptavidin-coated CM5 chip; CD: 10 mM sodium phosphate pH 7, 100 mM …
[2] = test system: TLWDLIP-GFP (synthetic fusion (expressed by L-arabinose induction)); experiment: SPR; settings: m2G966; m5C967 (E. coli numbering); 5' phosphorothioate; SPR: 10 mM Tris-HCl pH 7.5, 150 mM NaCl, 10 mM MgCl2, 1 mM DTT, 0.005% P20, 50 uL/min, streptavidin-coated CM5 chip; CD: 10 mM sodium phosphate pH 7, 100 mM …
[3] = test system: TYLPWPA-GFP (synthetic fusion (expressed by L-arabinose induction)); experiment: SPR; settings: m2G966; m5C967 (E. coli numbering); 5' phosphorothioate; SPR: 10 mM Tris-HCl pH 7.5, 150 mM NaCl, 10 mM MgCl2, 1 mM DTT, 0.005% P20, 50 uL/min, streptavidin-coated CM5 chip; CD: 10 mM sodium phosphate pH 7, 100 mM …
[4] = test system: translation of green fluorescent protein (GFP); experiment: coupled in vitro transcription-translation inhibition assay (GFP); type: biochemical, E. coli; settings: for inhibition of in vitro protein synthesis: cell-free translation, summary statement; for GFP fluorescence lower compared to DIRTQRE: peptide 1 mM, at 120 min, ex 487 nm; for order of translation inhibition by peptides (from high to low) / inhibitory effect on protein translation: peptides at 1 mM, GFP fluorescence; for inhibitory effect on protein translation: in words
Procedure: A cell-free translation assay was used to test the potential inhibitory effects of the peptides on protein synthesis. Different concentrations of peptides were added to E. coli S30 extracts and the extent of inhibition was monitored by the measurement of green fluorescent protein (GFP) translation.
The inhibitory effects of selected peptides (DIRTQRE, CVRPFAL, FVRPFAL, TLWDLIP and TYLPWPA) on cellular processes were determined by in vitro coupled transcription-translation inhibition assay. The PURExpress™ in vitro protein synthesis kit #E6800S from New England Biolabs (Beverly, MA) was used for this purpose. A DNA template for GFP (pRSETEmGFP plasmid, Invitrogen) was employed at a concentration of 10 µg/mL in a 15 µL of reaction volume. Different concentrations of peptides were added, ranging from 300 µM to 2 mM. The DNA template was added only after mixing of the peptides or streptomycin so that they could bind to their target region first. For the control, streptomycin was added at a final concentration of 300 µM. The reaction was incubated in 384-well, Costar, clear-well, black plates and in situ incubated at 37 °C in a Gemini XPS microplate spectrofluorometer (Molecular Devices, Sunnyvale, CA) and the amount of GFP produced was monitored at different time intervals from 0 min to 2 h by fluorescence (excitation at 487 nm, emission at 509 nm).

wild-type modified h31 = experiment: surface plasmon resonance (SPR), modified h31; type: binding, E. coli
Procedure: Modified h31 was labeled with biotin in order to immobilize the RNA onto a surface and determine the kinetics of peptide binding by surface plasmon resonance (SPR). […] In order to enhance the signal-to-noise ratio, a GFP-protein-fused peptide, TYLPWPA-GFP, was generated and used as the analyte.
Biotinylated, modified h31 RNA was immobilized onto a streptavidin-coated CM5 chip and differing concentrations of TYLPWPA-GFP (10–100 µM) were injected as the analyte. A range of salt concentrations, detergent levels, pH conditions, and flow rates were tested, since these factors affect the peptide-RNA complex formation (data not shown). The apparent dissociation constants were determined under the following optimized conditions: 10 mM Tris·HCl, 150 mM NaCl, 10 mM MgCl2, 1 mM dithiothreitol (DTT), 0.005% (v/v) P20 at pH 7.5 as the running buffer at a flow rate of 50 μL/min.
All immobilization and subsequent binding studies were performed using a BIAcore 2000 instrument set at a temperature of 25 °C. Standard dextran surface BIAcore sensorchips (Sensor chip CM5) were purchased from BIAcore (GE Healthcare, Piscataway, NJ). Standard desorb and sanitize routines were performed according to the BIAcore guidelines before docking a new CM5 sensor chip. All buffers were filtered through sterile 0.2 μm nylon membranes (Millipore™) under vacuum. Before derivatizing the flow cells with streptavidin, the CM5 sensor chip was pre-conditioned using three successive 10 μL injections of chip-preparation solution (10 mM NaOH, 500 mM NaCl) at 100 μL/min, followed by a normalization routine using BIAnormalizing solution (40% glycerol). Streptavidin derivatization was performed according to standard procedures.
Prior to immobilization, the solution of biotinylated RNA in HBS-EP buffer (10 mM HEPES, 3 mM EDTA, 150 mM NaCl, 0.005% P20 at pH 7.4) was renatured by heating to 90 °C for 2 min, cooling gradually to room temperature, and placing on ice. Flow cells were functionalized by injecting 30 μL of RNA at a time using the MANUAL INJECT command at a flow rate of 10 μL/min, until the desired immobilization level was reached. One of the flow cells was used to immobilize RNA, while the adjacent cell remained unmodified to serve as a blank-control for matrix effects. Levels of RNA captured were calculated by subtracting […] for each flow cell. After RNA immobilization, both flow cells were blocked with 100 μL of 1 mg/mL biotin at 5 μL/min.
For the SPR experiments, the peptides were cloned into plasmid pBacEmGH (Cunningham Lab, to be described elsewhere) under transcriptional regulation of a PBAD promoter. Upon induction with L-arabinose, the resulting construct produces a fusion protein in which the peptide is fused to the N-terminus of EmGFP containing a C-terminus 6 x His affinity tag (PEP-EmGFP-6 x His).
Peptide samples were prepared by serial dilutions from stock solutions. Dilutions were made in running buffer (10 mM Tris·HCl, 150 mM NaCl, 10 mM MgCl2, 1 mM DTT, 0.005% (v/v) P20 at pH 7.5). All procedures for binding were automated, as optimized methods using repetitive cycles of sample injection and regeneration. Typically, running buffer was injected for ~30 min prior to experiment to establish a stable baseline value. Peptide solutions (200 μL) were injected at a kinetic flow rate of 50 μL/min, using the KINJECT command. All peptide samples were injected from 7 mm plastic vials (BIAcore) that were capped with pierceable plastic-crimp-caps to minimize carry-over and sample evaporation. Samples were injected in order of increasing concentration. The surface was regenerated using 150 μL of 500 mM NaCl. The data were fit to a 1:1 binding Langmuir model using BIAevaluation 3.0 software. […]

[5] = test system: GFP-S11-labeled 30S subunits; experiment: ribosome-binding assay on Tentagel beads; design: species or system E. coli; settings: for order of binding preference by the 30S subunits (from high to low): fluorescence microscopy, pH 7.3; for fluorescence on beads after 30S binding: peptide on Tentagel beads, 30S subunits overnight at 4 °C, 20 mM HEPES, pH 7.3, 10 mM MgCl2, 100 mM KCl, duplicate
Procedure: The purpose of this experiment was to determine whether the selected peptides have affinity for bacterial ribosomes. The binding affinities of various peptides could also be compared by this method. Small ribosomal subunits, 30S, labeled with GFP on ribosomal protein S11 were added to peptides covalently attached to Tentagel beads (Figure 4A). […] The peptides were chemically synthesized on Tentagel beads with their N-termini exposed. Increasing concentrations of GFP-tagged 30S subunits were added to the Tentagel-bound peptides and unbound 30S subunits were removed by washing. Relative fluorescence intensity of the 30S subunits bound to the peptides on bead was determined by imaging on a fluorescence microscope, with the assumption that the level of fluorescence on the beads was proportional to the affinity of the ribosome for the peptide sequence.
Four peptides isolated from the phage-display experiment, […], DIRTQRE, TLWDLIP, and […], were synthesized on Tentagel (Rapp Polymer, Tübingen, Germany) beads using standard Fmoc synthesis. The beads were stored in DMF until use. The beads were then washed three times with 450 μl of water, and three times with 450 μL of the binding buffer B (binding buffer: 20 mM HEPES, pH 7.3, 10 mM MgCl2, 100 mM KCl), using 0.45 μm MWCO Nanosep (Pall Corporation, Ann Arbor, MI). The beads were then centrifuged at 6,000 rpm for 1–2 min.
Fluorescently labeled 30S subunits were isolated by sucrose gradient centrifugation in 5 mM Mg^2+ [82]. For control experiments, His(6)-EmGFP-S11 was purified using IMAC resin (Bio-Rad, Hercules, CA) and the fluorescence was assayed using beads carrying peptides with ribosomes, beads carrying peptides with His(6)-EmGFP-S11 (no ribosomes) and beads only with ribosomes (no peptides).
The fluorescent ribosomes were incubated in binding buffer B (20 mM HEPES, pH 7.3, 10 mM MgCl2, 100 mM KCl) at 37 °C for 30 min. Next, 25 pmoles of ribosome solution was added to each peptide, and the mixture was incubated overnight at 4 °C with agitation. Unbound ribosomes were removed by two 450 μL washes with binding buffer B and centrifugation at 6,000 rpm for 1–2 min. The beads were resuspended in 40 μL of binding buffer B for microscope screening and kept on ice until scanning. The beads (20 μL) were spread on microscope slides for scanning (Olympus 1X71 microscope, TH4 100 Olympus lamp, Olympus UCMAD 3 camera, 20× magnification). An average of two pictures were taken per slide, eliminating beads presenting uneven swelling and cracks.

TYLPWPA peptide [6] = target: T1, TYLPWPA peptide (synthetic (phage display)); experiment: fluorescence titration (quenching); 10 mM HEPES, 50 mM NaCl, 1 mM Na2EDTA, pH 7.5, 25 C; apparent, 7% signal change; SPR: 10 mM Tris-HCl pH 7.5, 150 mM NaCl, 10 mM MgCl2, 1 mM DTT, 0.005% P20, 50 uL/min, streptavidin-coated CM5 chip; CD: 10 mM sodium phosphate pH 7, 100 mM NaCl, 0.1 mM Na2EDTA, 25 C; fluorescence: 10 mM HEPES pH 7.5, 50 mM NaCl, 1 mM Na2EDTA, 25 C; settings: label: 5'-fluorescein; hairpin
T1 chain: TYLPWPA

TYLPWPA peptide [7] = target: T1, TYLPWPA peptide; experiment: CD titration; 100 mM NaCl, 10 mM sodium phosphate, 0.1 mM Na2EDTA, pH 7.0, 25 C; apparent, poor fit; SPR: 10 mM Tris-HCl pH 7.5, 150 mM NaCl, 10 mM MgCl2, 1 mM DTT, 0.005% P20, 50 uL/min, streptavidin-coated CM5 chip; CD: 10 mM sodium phosphate pH 7, 100 mM NaCl, 0.1 mM Na2EDTA, 25 C; fluorescence: 10 mM HEPES pH 7.5, 50 mM NaCl, 1 mM Na2EDTA, 25 C; settings: hairpin

GUUCGAUGCAACGCGAAC [modified h31 (wild-type), biotinylated]
Kd [1]: 0.23 µM
Kd (GFP (EmGFP)): 20 µM
Kd [2]: 0.33 µM
Kd [3]: 28 µM

[H]/N=C(/N)N[C@H]1[C@H](O)[C@@H](O)[C@H](O[C@@H]2O[C@@H](C)[C@](O)(C=O)[C@H]2O[C@@H]2O[C@@H](CO)[C@H](O)[C@@H](O)[C@@H]2NC)[C@@H](N/C(N)=N\[H])[C@@H]1O [Streptomycin, streptomycin, reference compound]
inhibition of GFP translation ([4]; 300 µM, positive control, 37 °C, fluorescence ex 487 nm, em 509 nm): completely inhibited GFP translation

TYLPWPA-GFP
ka (association rate constant) (wild-type modified h31; 1:1 Langmuir, 10 mM Tris·HCl, 150 mM NaCl, 10 mM MgCl2, 1 mM DTT, 0.005% P20, pH 7.5, 50 μL/min, 25 °C, CM5 chip): (1.50 ± 0.02) × 10^2 M^-1s^-1
kd (dissociation rate constant) (wild-type modified h31; 1:1 Langmuir, pH 7.5, 150 mM NaCl, 10 mM MgCl2, 50 μL/min, 25 °C, CM5 chip): (4.2 ± 0.04) × 10^-3 s^-1
KD (kd/ka) (wild-type modified h31; SPR kinetic analysis, 1:1 Langmuir, pH 7.5, 150 mM NaCl, 10 mM MgCl2, 50 μL/min, 25 °C, TYLPWPA-GFP 10–100 µM): 28 ± 1 µM

FVRPFAL [heptapeptide selected against wild-type modified h31]
inhibition of in vitro protein synthesis [4]: promising results in the in vitro translation assay
GFP fluorescence lower compared to DIRTQRE ([4]; em 509 nm): four
order of translation inhibition by peptides (from high to low) ([4]; 37 °C): CVRPFAL ≈ FVRPFAL > TLWDLIP > TYLPWPA > DIRTQRE
inhibitory effect on protein translation [4]: best inhibitory effects

CVRPFAL [heptapeptide from selection against modified h31 with unmodified h31 counter selection]
inhibition of in vitro protein synthesis [4]: inhibit in vitro protein synthesis
GFP fluorescence lower compared to DIRTQRE ([4]; em 509 nm): four
order of translation inhibition by peptides (from high to low) ([4]; 37 °C): CVRPFAL ≈ FVRPFAL > TLWDLIP > TYLPWPA > DIRTQRE
inhibitory effect on protein translation [4]: best inhibitory effects
order of binding preference by the 30S subunits (from high to low) ([5]; Tentagel beads): TYLPWPA > CVRPFAL ≈ TLWDLIP > DIRTQRE
fluorescence on beads after 30S binding [5]: Fluorescence is observed
binding affinity to modified h31 (wild-type modified h31; in words, comparable to known antibiotics targeting 16S rRNA): high nM

DIRTQRE [heptapeptide selected against wild-type modified h31]
order of translation inhibition by peptides (from high to low) ([4]; 37 °C): CVRPFAL ≈ FVRPFAL > TLWDLIP > TYLPWPA > DIRTQRE
order of binding preference by the 30S subunits (from high to low) ([5]; Tentagel beads): TYLPWPA > CVRPFAL ≈ TLWDLIP > DIRTQRE
relative binding affinity to 30S subunits ([5]; Tentagel beads, quantified fluorescence, of the four peptides tested): lowest relative affinity
fluorescence on beads after 30S binding [5]: Fluorescence is observed

GUUCGAUGCAACGCGAAC (structured_RNA, m2G966; m5C967 (E. coli numbering); 5' phosphorothioate) [F-h31 (modified h31, fluorescein)]
Kd (TYLPWPA peptide [6]): 27 ± 4 µM

GUUCGAUGCAACGCGAAC (structured_RNA, m2G966; m5C967 (E. coli numbering)) [modified h31 (wild-type), unlabeled]
Kd (TYLPWPA peptide [7]): 28 ± 10 µM
